Laboratory results: paper PMC10349828, “Mechanistic investigation of a D to N mutation in DAHP synthase that dictates carbon flux into the shikimate pathway in yeast” (Communications Chemistry, 2023)

Legend:
Aro3 [1] = target: T1, Aro3 (Saccharomyces cerevisiae, UniProt P14843, D154N); assay: isothermal titration calorimetry; format: binding
T1 construct: full-length ORF in pET21, C-terminal His6 tag, expressed in E. coli Rosetta 2 (DE3); Ni-NTA and gel filtration; dimer in crystal

Aro3 [2] = target: T2, Aro3 (Saccharomyces cerevisiae, UniProt P14843, K222L); assay: DAHP formation, periodate-thiobarbituric acid assay at […] nm; format: biochemical; details: read-out: % inhibition at 0.1 mM
T2 construct: full-length ORF in pET21, C-terminal His6 tag, expressed in E. coli Rosetta 2 (DE3); Ni-NTA and gel filtration; dimer in crystal

Aro3 [3] = target: T1, Aro3; assay: as above; format: biochemical; details: read-out: % remaining activity at 10 mM
Aro3 [4] = target: T3, Aro3 (Saccharomyces cerevisiae, UniProt P14843); assay: isothermal titration calorimetry; format: binding
T3 construct: full-length ORF in pET21, C-terminal His6 tag, expressed in E. coli Rosetta 2 (DE3); Ni-NTA and gel filtration; dimer in crystal

Aro3 [5] = target: T3, Aro3; assay: DAHP formation, periodate-thiobarbituric acid assay at […] nm; format: biochemical; details: read-out: % inhibition at 0.1 mM

T1 sequence (P14843 whole entry D154N): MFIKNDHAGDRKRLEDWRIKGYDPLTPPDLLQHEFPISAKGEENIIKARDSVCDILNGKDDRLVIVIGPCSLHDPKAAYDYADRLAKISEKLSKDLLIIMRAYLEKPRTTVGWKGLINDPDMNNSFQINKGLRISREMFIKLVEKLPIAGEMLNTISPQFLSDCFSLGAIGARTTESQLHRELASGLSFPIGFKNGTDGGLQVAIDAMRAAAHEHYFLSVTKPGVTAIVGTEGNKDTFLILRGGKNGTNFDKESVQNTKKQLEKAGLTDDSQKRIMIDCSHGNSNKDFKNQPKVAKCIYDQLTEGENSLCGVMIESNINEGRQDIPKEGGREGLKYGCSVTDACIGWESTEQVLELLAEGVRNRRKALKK
T3 sequence (P14843 whole entry): as the sequence (P14843 whole entry D154N) above, with N154D counted along it
T2 sequence (P14843 whole entry K222L): as the sequence (P14843 whole entry D154N) above, with N154D, K222L counted along it

## N[C@@H](Cc1ccccc1)C(=O)O [L-Phe]
Aro3 [1]
  Kd: 336 ± 31.2 µM
Aro3 [2]
  inhibition at 100 µM: ~50%
Aro3 [3]
  remaining activity at 10000 µM: 71.2%
Aro3 [4]
  Kd: 31.4 µM
Aro3 [5]
  inhibition at 100 µM: ~50%
